Assays:
melatonin = assay: Evaluation of melatonin secretion promoting effect: melatonin concentration in plasma during 24 weeks of oral ingestion; assay type: in vivo, human; conditions: for Change rate (24 weeks-0 weeks) of melatonin concentration in the plasma: mean ± SD
Procedure: In order to confirm a change in the melatonin quantity before and after ingestion of the nicotinamide mononucleotide, a test was conducted on healthy males and females aged 50 to 70 years.
As a sample of Working Example 1, a capsule formulation containing the nicotinamide mononucleotide and starch (100 mg (low dose) and 200 mg (high dose) of the nicotinamide mononucleotide in 4 capsules) (manufactured by SHINKOWA PHARMACEUTICAL Co., Ltd.) was used.
(§1) Each group consisting of five healthy males and females aged 50 to 70 years in an unbiased age group ingested the above low dose capsule formulation once a day by 4 capsules for 24 weeks (total 10 subjects, a low dose group: 100 mg/daily ingestion). On the other hand, each group consisting of five healthy males and females aged 50 to 70 years in the unbiased age group ingested the above high dose capsule formulation once a day by 4 capsules for 24 weeks (total 10 subjects, a high dose group: 200 mg/daily ingestion). In order to conduct appropriate evaluations, those who had been regularly using medical products for chronic diseases, those who had been consuming healthy foods that may affect clinical research, and those who were currently participating in other clinical researches or clinical trials, or had participated in other clinical researches or clinical trials within the last three months were excluded from the subject for the evaluation. The capsule formulations were ingested at 10 am (between meals and fasting state) together with water or lukewarm water (oral administration).
Measurement of the melatonin quantity in plasma was conducted by requesting the measurement to an external public organization according to a usual method. FIGS. 2a to 2c indicates transitions of the melatonin concentration (pg/ml) in the plasma for 24 weeks. FIG. 2a represents the transitions of the whole subjects; FIG. 2b represents the transitions of the male subjects; FIG. 2c represents the transitions of the female subjects. FIGS. 3a to 3c indicates change rates (%) of the blood melatonin concentration up to 24 weeks when the nicotinamide mononucleotide was orally administered to the subjects for 24 weeks. FIG. 3a represents the change rates of the whole subjects; FIG. 3b represents the change rates of the male subjects; FIG. 3c represents the change rates of the female subjects. Further, Table 1 indicates the numerical values of the melatonin concentration (pg/ml) in the plasma before the ingestion of the nicotinamide mononucleotide (0 weeks) and after the ingestion of the nicotinamide mononucleotide (24 weeks). In addition, the numerical values represent mean values ±standard deviation.

[1] = Safety observation of the subjects during 24 weeks of ingestion (complaints, stool abnormality); assay type: in vivo, human; conditions: healthy males and females aged 50 to 70, 100 or 200 mg/daily oral, ingestion for 24 weeks
Procedure: as §1

## NC(=O)c1ccc[n+]([C@@H]2O[C@H](COP(=O)([O-])O)[C@@H](O)[C@H]2O)c1 [nicotinamide mononucleotide]
melatonin; female subjects, high dose group (200 mg/daily, oral)
  Change rate (24 weeks-0 weeks) of melatonin concentration in the plasma: 6.03 ± 5.90 pg/mL
melatonin; female subjects, low dose group (100 mg/daily, oral)
  Change rate (24 weeks-0 weeks) of melatonin concentration in the plasma: 2.21 ± 3.19 pg/mL
melatonin; healthy males and females aged 50 to 70, 100 or 200 mg/daily oral, up to 24 weeks
  effect of ingestion on melatonin concentrations in plasma (FIGS. 2a-2c, 3a-3c): increased the melatonin concentrations in plasma at the high change rates
melatonin; male subjects, high dose group (200 mg/daily, oral)
  Change rate (24 weeks-0 weeks) of melatonin concentration in the plasma: 2.86 ± 3.10 pg/mL
melatonin; male subjects, low dose group (100 mg/daily, oral)
  Change rate (24 weeks-0 weeks) of melatonin concentration in the plasma: 3.44 ± 3.57 pg/mL
melatonin; whole subjects, both the low dose group and the high dose group, 24 weeks, p<0.05
  melatonin concentration in the plasma after ingestion compared to before ingestion, statistical significance: a significant difference was observed
melatonin; whole subjects, high dose group (200 mg/daily, oral)
  Change rate (24 weeks-0 weeks) of melatonin concentration in the plasma: 4.45 ± 4.75 pg/mL
melatonin; whole subjects, low dose group (100 mg/daily, oral)
  Change rate (24 weeks-0 weeks) of melatonin concentration in the plasma: 2.82 ± 3.26 pg/mL
[1]
  unidentified complaints (abdominal pain, nausea, vomiting, headache) or stool abnormality: did not show any unidentified complaint

Source: patent US20200268632A1, “ANTI-AGING AGENT AND ANTI-AGING METHOD” (priority 2017, published 2020)
